Measured values published in US20240199618A1, “NOVEL N-ACYL-[3-SUBSTITUTED]-[8-SUBSTITUTED]-5,6-DIHYDRO-[1,2,4]TRIAZOLO[4,3-a]PYRAZINES AS SELECTIVE NK-3 RECEPTOR ANTAGONISTS, PHARMACEUTICAL COMPOSITION, METHODS FOR USE IN NK-3 RECEPTOR-MEDIATED DISORDERS” (Ogeda SA, priority 2013, published 2024).
pKi: −log10 of the molar value.

What was measured:
human NK-1 receptor = human NK-1 receptor (Homo sapiens (Human), UniProt P25103); test: Selectivity assay: [3H] substance P binding, human NK-1 receptor; settings: 2 nM [3H] substance P, CHO membranes; read-out: hNK-1 (Ki)
Sequence of human NK-1 receptor (P25103 whole entry): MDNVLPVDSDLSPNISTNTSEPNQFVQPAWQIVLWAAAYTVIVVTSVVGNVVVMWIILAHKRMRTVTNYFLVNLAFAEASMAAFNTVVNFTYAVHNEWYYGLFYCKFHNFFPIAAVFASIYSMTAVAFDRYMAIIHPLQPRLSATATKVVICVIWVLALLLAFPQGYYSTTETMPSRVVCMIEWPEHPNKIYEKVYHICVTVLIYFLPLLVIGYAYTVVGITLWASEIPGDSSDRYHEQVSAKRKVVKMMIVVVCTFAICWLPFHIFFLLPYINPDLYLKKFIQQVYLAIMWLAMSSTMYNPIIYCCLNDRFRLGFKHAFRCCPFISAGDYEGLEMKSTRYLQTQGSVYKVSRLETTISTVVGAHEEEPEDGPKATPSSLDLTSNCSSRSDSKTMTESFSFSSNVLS
Outline: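 Competition binding on membranes from CHO cells expressing human NK-1 receptor, using 2 nM [3H] substance P in 50 mM Tris/5 mM MnCl2/150 mM NaCl/0.1% BSA, pH 7.4, with increasing compound concentrations. Incubated 60 min at 25 °C; bound radioactivity measured after filtration.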

plasma protein = test: Determination of plasma protein binding (equilibrium dialysis, RED); format: in vitro ADME; settings: 4 hours at 37° C.
plasma testosterone = test: Plasma testosterone in gonad intact male rats; format: in vivo, rat; settings: 3 mg/kg oral, vs vehicle, FIG. 1
Method: Effect of Compounds of the Invention on Plasma Testosterone in Gonad Intact Male Rats
The study was designed to evaluate the effect of compounds of the invention on testosterone circulating levels following oral administration at 3 mg/kg on SD gonad intact male rats.
Briefly the experimental methods used for this study were as follows:
Two groups of non-fasted rats (male, Sprague-Dawley, 200 to 225 g; n=4 rats/group) with jugular vein cannulation, were dosed via a single oral administration of compounds of the invention at 3 mg/kg. The control group was dosed with the vehicle. Compounds of the invention were prepared in a dose formulation of pyrogen-free water with 0.5% methylcellulose. Blood samples were collected via the catheter implanted in the jugular vein at pre-determined intervals using EDTA-3K as anti-coagulant. Samples were chilled and rapidly processed by centrifugation to obtain corresponding plasma samples. Testosterone hormone levels were determined by RIA performed on plasma samples collected for all the groups at 5 minutes before administration (basal time), and at 45, 90, 150, 300, 480 minutes and 24 hours after dosing.

plasma estradiol = test: Estradiol circulating level in female rats; format: in vivo, rat; settings: 10 mg/kg b.i.d. oral, 10 days, FIG. 3
Method: Effect of compounds of the invention on Estradiol circulating level in female rats The aim of this study was to evaluate the effect of compounds of the invention on plasma estradiol levels following oral administration at 10 mg/kg (b.i.d.) for a period of 10 days in female rats.
Briefly the experimental methods used for this study were as follows: Two groups of adult, female rats (Sprague-Dawley, ˜320 g) were treated in-phase with their individual estrous cycles. Thus, treatment was started in the proestrus phase (coincident with peak estradiol levels, as shown on Day 1 in FIG. 3) and rats were dosed twice daily (˜9 h30 and 17 h30) by oral administration either with a compound of the invention at 10 mg/kg or with the vehicle for the control group. Compounds of the invention were prepared in a dose formulation of pyrogen-free water with 0.5% methylcellulose. Estradiol levels were determined for all groups by ELISA performed on plasma samples derived from blood collections taken at 30 minutes before the daily, 9 h30 test article administration on all days presented in FIG. 3.

[1] = test system: serum Total Testosterone, LH, FSH in women with PCOS; test: Phase 2a clinical trial, PolyCystic Ovary Syndrome (PCOS); format: in vivo, human
Method: Clinical Evaluation of Compound n^o 5 for the Treatment of PolyCystic Ovary Syndrome (PCOS)
Objectives: The study objectives are to evaluate the effect of compound n^o 5 on the serum levels of Total Testosterone (TT), Luteinizing Hormone (LH), Follicle Stimulating Hormone (FSH) and LH:FSH ratio after 12 weeks of treatment.
Design and Setting: The Phase 2a clinical trial was conducted in 48 patients, divided over 2 treatment groups of 24 patients each. One group received placebo while the other group received 180 mg of compound n^o 5 once daily (QD) for a period of 12 weeks. The Phase 2a trial was double blind and randomized. […] The study was conducted on an ambulatory basis where patients were asked to visit the clinical site on the first day of dosing and at weeks 3, 6, 9 and 12 during the treatment period with a follow-up visit 2-3 weeks after conclusion of dosing.
Blood draws for LH, FSH and TT were taken every visit between 2 and 8 hours after drug intake (baseline and week 3-6-12). At week 9 the blood samples were taken in the morning before drug intake (i.e. at trough PK concentrations for compound n^o 5). These blood draws were the basis for assessing the primary (TT) and secondary (LH, FSH, LH:FSH ratio) endpoints. The primary endpoint of Total Testosterone was measured according to GLP using an LC-MS/MS method.
PCOS is typically characterized by excessive ovarian androgen production, failure of ovulation, and slightly enlarged ovaries with numerous peripheral small follicles that appear as cysts. The disorder is commonly accompanied by infertility. Typically, the clinical features of PCOS are associated with hypersecretion of LH and androgens (TT) but with normal serum concentrations of FSH hormone. Laboratory examinations reveal elevated TT levels in about 50% of the patients, accompanied by an elevated LH:FSH ratio (>2) due to the imbalanced secretion of both hormones (a ratio of 1 is considered normal).

Q: What does the source list for `Cc1nsc(-c2nnc3n2CCN(C(=O)c2ccc(F)cc2)[C@@H]3C)n1` [Compound 5, (R)-(4-fluorophenyl)(8-methyl-3-(3-methyl-1,2,4-thiadiazol-5-yl)-5,6-dihydro-[1,2,4]triazolo[4,3-a]pyrazin-7(8H)-yl)methanone]?
A: pKi (human NK-1 receptor): < 4.52; Exposure (% rPPB), bound drug fraction to plasma protein (plasma protein): 22%; plasma testosterone level (plasma testosterone): significantly suppressed; estradiol levels (plasma estradiol): significantly decreased; FSH secretion ([1]; 180 mg QD, women with PCOS): preserved; LH ([1]; 180 mg QD, women with PCOS): significant decrease; LH:FSH in comparison of placebo ([1]; 180 mg QD, women with PCOS): significantly reduced; TT in comparison of placebo ([1]; 180 mg QD, women with PCOS): significantly reduced; Total Testosterone (mean) ([1]; Baseline, 180 mg QD group): 2.16 nmol/L; Total Testosterone (mean) ([1]; Week 6, 180 mg QD oral): 1.41 nmol/L; Total Testosterone (mean) ([1]; Week 12, 180 mg QD oral): 1.39 nmol/L
